By IC50 is commonly meant the concentration that gives 50% inhibition.

Molecules are shown by their SMILES.

The target of the assay is HSD17B13 (Homo sapiens (Human), UniProt Q7Z5P4). The experiment in a line: HSD17B13 enzymatic inhibition assay (150 nM or 50 nM HSD17B13). The assay is classed as biochemical. Particulars: 50 nM HSD17B13; read-out: Inhibition of 50 nM of HSD17B13 IC50.
Sequence of HSD17B13 (Q7Z5P4 other isoform, or with tags, fused parts or gaps): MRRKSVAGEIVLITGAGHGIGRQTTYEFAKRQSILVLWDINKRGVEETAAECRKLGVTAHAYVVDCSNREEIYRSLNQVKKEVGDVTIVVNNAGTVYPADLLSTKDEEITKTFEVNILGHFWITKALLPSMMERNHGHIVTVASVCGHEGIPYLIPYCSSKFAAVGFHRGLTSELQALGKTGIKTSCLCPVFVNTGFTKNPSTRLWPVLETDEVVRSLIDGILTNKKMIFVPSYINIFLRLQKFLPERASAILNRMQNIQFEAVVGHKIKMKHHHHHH
As for `CCCN1CCC(NC(=O)c2ccc(C(F)(F)F)[nH]c2=O)c2ccc(C)cc21` (stereo not shown) [Compound 337, N-(7-methyl-1-propyl-1,2,3,4-tetrahydroquinolin-4-yl)-2-oxo-6-(trifluoromethyl)-1,2-dihydropyridine-3-carboxamide], the IC50 is 4190 nM.
The value for `Cc1ccc2c(c1)N(C)CCC2NC(=O)c1ccc(C(F)(F)F)[nH]c1=O` (stereo not shown) [Compound 338, N-(1,7-dimethyl-1,2,3,4-tetrahydroquinolin-4-yl)-2-oxo-6-(trifluoromethyl)-1,2-dihydropyridine-3-carboxamide] was 4260 nM; that for `Cc1ccc2c(c1)C(NC(=O)c1ccc(C(F)(F)F)[nH]c1=O)CCN2` (stereo not shown) [Compound 339, N-(6-methyl-1,2,3,4-tetrahydroquinolin-4-yl)-2-oxo-6-(trifluoromethyl)-1,2-dihydropyridine-3-carboxamide] was 2820 nM; that for `CCCC1=Cc2ccc(C)cc2C1NC(=O)c1ccc(C(F)(F)F)[nH]c1=O` (stereo not shown) [Compound 340, N-(6-methyl-2-propyl-1H-inden-1-yl)-2-oxo-6-(trifluoromethyl)-1,2-dihydropyridine-3-carboxamide] was 190 nM.
The value for `CCCC1=C(NC(=O)c2ccc(C(F)(F)F)[nH]c2=O)c2ccc(C)cc2C1O` (stereo not shown) [Compound 342, N-(1-hydroxy-6-methyl-2-propyl-1H-inden-3-yl)-2-oxo-6-(trifluoromethyl)-1,2-dihydropyridine-3-carboxamide] was 100 nM.
The value for `CC1=C(NC(=O)c2ccc(C(F)(F)F)[nH]c2=O)c2ccccc2C1=O` [Compound 343, N-(2-methyl-1-oxo-1H-inden-3-yl)-2-oxo-6-(trifluoromethyl)-1,2-dihydropyridine-3-carboxamide] was 6260 nM; that for `CCCC1=C(NC(=O)c2ccc(C(F)(F)F)[nH]c2=O)c2ccc(C)cc2C1=O` [Compound 344, N-(6-methyl-1-oxo-2-propyl-1H-inden-3-yl)-2-oxo-6-(trifluoromethyl)-1,2-dihydropyridine-3-carboxamide] was 2250 nM.
Consider `O=C(NC1CCCc2c(CO)cccc21)c1ccc(C(F)(F)F)[nH]c1=O` (stereo not shown) [Compound 345, N-(5-(hydroxymethyl)-1,2,3,4-tetrahydronaphthalen-1-yl)-2-oxo-6-(trifluoromethyl)-1,2-dihydropyridine-3-carboxamide], for which the half-maximal inhibitory concentration (IC50) was found to be 8970 nM.
The value for `O=C(NC1CCCc2c(CCO)cccc21)c1ccc(C(F)(F)F)[nH]c1=O` (stereo not shown) [Compound 346, N-(5-(2-hydroxyethyl)-1,2,3,4-tetrahydronaphthalen-1-yl)-2-oxo-6-(trifluoromethyl)-1,2-dihydropyridine-3-carboxamide] was 7030 nM; that for `Cc1cccc2c1CCCC2NC(=O)c1ccc(C(F)(F)F)[nH]c1=O` (stereo not shown) [Compound 347] was more than 10000 nM; that for `O=C(NC1CCCc2c(-c3ccccc3)cccc21)c1ccc(C(F)(F)F)[nH]c1=O` (stereo not shown) [Compound 348, 2-oxo-N-(5-phenyl-1,2,3,4-tetrahydronaphthalen-1-yl)-6-(trifluoromethyl)-1,2-dihydropyridine-3-carboxamide] was 9840 nM.
With `COc1ccc2c(c1)CCC(OC)C2NC(=O)c1ccc(C(F)(F)F)[nH]c1=O` (stereo not shown) [Compound 349, N-(2,6-dimethoxy-1,2,3,4-tetrahydronaphthalen-1-yl)-2-oxo-6-(trifluoromethyl)-1,2-dihydropyridine-3-carboxamide] the figure was 1410 nM; with `COC1CCc2cc(C)ccc2C1NC(=O)c1ccc(C(F)(F)F)[nH]c1=O` (stereo not shown) [Compound 350, N-(2-methoxy-6-methyl-1,2,3,4-tetrahydronaphthalen-1-yl)-2-oxo-6-(trifluoromethyl)-1,2-dihydropyridine-3-carboxamide], 360 nM; with `Cc1ccc2c(c1)OC(C)C2NC(=O)c1ccc(C(F)(F)F)[nH]c1=O` (stereo not shown) [Compound 356, N-(2,6-dimethyl-2,3-dihydrobenzofuran-3-yl)-2-oxo-6-(trifluoromethyl)-1,2-dihydropyridine-3-carboxamide], 2160 nM.
On to `CCC[C@H]1Oc2cc(C)ccc2[C@H]1NC(=O)c1ccc(C(F)(F)F)[nH]c1=O` [Compound 357, N-((2R,3R)-6-methyl-2-propyl-2,3-dihydrobenzofuran-3-yl)-2-oxo-6-(trifluoromethyl)-1,2-dihydropyridine-3-carboxamide], for which the IC50 was determined as 1180 nM.
Consider `CC[C@@H]1Oc2cc(C)ccc2[C@@H]1NC(=O)c1ccc(C(F)(F)F)[nH]c1=O` [Compound 359, N-((2S,3S)-2-ethyl-6-methyl-2,3-dihydrobenzofuran-3-yl)-2-oxo-6-(trifluoromethyl)-1,2-dihydropyridine-3-carboxamide], for which the IC50 is 2150 nM.
For the compound `Cc1ccc2c(c1)C(NC(=O)c1ccc(C(F)(F)F)[nH]c1=O)C(C)O2` (stereo not shown) [Compound 363, N-(2,5-dimethyl-2,3-dihydrobenzofuran-3-yl)-2-oxo-6-(trifluoromethyl)-1,2-dihydropyridine-3-carboxamide], the IC50 came out at 2470 nM.
With `CC[C@@H]1C[C@@H](NC(=O)c2ccc(C(F)(F)F)[nH]c2=O)c2cc(C)ccc2N1` [Compound 364, N-((2R,4R)-2-ethyl-6-methyl-1,2,3,4-tetrahydroquinolin-4-yl)-2-oxo-6-(trifluoromethyl)-1,2-dihydropyridine-3-carboxamide] the figure was 600 nM.
The value for `CC[C@H]1C[C@@H](NC(=O)c2ccc(C(F)(F)F)[nH]c2=O)c2cc(C)ccc2N1` [Compound 365, N-((2S,4R)-2-ethyl-6-methyl-1,2,3,4-tetrahydroquinolin-4-yl)-2-oxo-6-(trifluoromethyl)-1,2-dihydropyridine-3-carboxamide] was 160 nM; that for `CC[C@@H]1C[C@@H](NC(=O)c2ccc(C(F)(F)F)[nH]c2=O)c2ccc(C)cc2N1` [Compound 367, N-((2R,4R)-2-ethyl-7-methyl-1,2,3,4-tetrahydroquinolin-4-yl)-2-oxo-6-(trifluoromethyl)-1,2-dihydropyridine-3-carboxamide] was 380 nM.
The value for `Cc1ccc2c(c1)[C@H](NC(=O)c1ccc(C(F)(F)F)[nH]c1=O)C[C@H](C)N2` [Compound 371, N-((2S,4R)-2,6-dimethyl-1,2,3,4-tetrahydroquinolin-4-yl)-2-oxo-6-(trifluoromethyl)-1,2-dihydropyridine-3-carboxamide] was 1420 nM; that for `CCN1Cc2cc(C)ccc2C(NC(=O)c2ccc(C(F)(F)F)[nH]c2=O)C1=O` (stereo not shown) [Compound 373, N-(2-ethyl-7-methyl-3-oxo-1,2,3,4-tetrahydroisoquinolin-4-yl)-2-oxo-6-(trifluoromethyl)-1,2-dihydropyridine-3-carboxamide] was 1730 nM.
As for `Cc1ccc2c(c1)CNC(=O)C2NC(=O)c1ccc(C(F)(F)F)[nH]c1=O` (stereo not shown) [Compound 374, N-(7-methyl-3-oxo-1,2,3,4-tetrahydroisoquinolin-4-yl)-2-oxo-6-(trifluoromethyl)-1,2-dihydropyridine-3-carboxamide], the IC50 stood at 2490 nM.
With `Cc1ccc2c(c1)CN(C)C(=O)C2NC(=O)c1ccc(C(F)(F)F)[nH]c1=O` (stereo not shown) [Compound 375, N-(2,7-dimethyl-3-oxo-1,2,3,4-tetrahydroisoquinolin-4-yl)-2-oxo-6-(trifluoromethyl)-1,2-dihydropyridine-3-carboxamide] the figure was 2400 nM.
The value for `Cc1ccc2c(c1)c(NC(=O)c1ccc(C(F)(F)F)[nH]c1=O)cn2C` [Compound 376, N-(1,5-dimethyl-1H-indol-3-yl)-2-oxo-6-(trifluoromethyl)-1,2-dihydropyridine-3-carboxamide] was 2840 nM.
With `Cc1ccc2[nH]cc(NC(=O)c3ccc(C(F)(F)F)[nH]c3=O)c2c1` [Compound 377, N-(5-methyl-1H-indol-3-yl)-2-oxo-6-(trifluoromethyl)-1,2-dihydropyridine-3-carboxamide] the figure was 7770 nM.
With `Cc1ccc2[nH]c(C)c(NC(=O)c3ccc(C(F)(F)F)[nH]c3=O)c2c1` [Compound 378, N-(2,5-dimethyl-1H-indol-3-yl)-2-oxo-6-(trifluoromethyl)-1,2-dihydropyridine-3-carboxamide], the half-inhibitory concentration (IC50) is 760 nM.
With `Cc1ccc2c(NC(=O)c3ccc(C(F)(F)F)[nH]c3=O)cn(C)c2c1` [Compound 379, N-(1,6-dimethyl-1H-indol-3-yl)-2-oxo-6-(trifluoromethyl)-1,2-dihydropyridine-3-carboxamide] the figure was 4820 nM; with `Cc1ccc2c(NC(=O)c3ccc(C(F)(F)F)[nH]c3=O)coc2c1` [Compound 380, N-(6-methylbenzofuran-3-yl)-2-oxo-6-(trifluoromethyl)-1,2-dihydropyridine-3-carboxamide], more than 10000 nM; with `CCCC1CC(NC(=O)c2ccc(C(F)(F)F)[nH]c2=O)c2ccc(C)cc2S1` (stereo not shown) [Compound 381, N-(7-methyl-2-propylthiochroman-4-yl)-2-oxo-6-(trifluoromethyl)-1,2-dihydropyridine-3-carboxamide], 130 nM.
On to `CCCC1CC(NC(=O)c2ccc(C(F)(F)F)[nH]c2=O)c2cc(C)ccc2S1` (stereo not shown) [Compound 382, N-(6-methyl-2-propylthiochroman-4-yl)-2-oxo-6-(trifluoromethyl)-1,2-dihydropyridine-3-carboxamide], for which the 50% inhibitory concentration (IC50) was found to be 130 nM.
With `Cc1ccc2c(c1)C(NC(=O)c1ccc(C(F)(F)F)[nH]c1=O)CC(C)S2` (stereo not shown) [Compound 386, N-(2,6-dimethylthiochroman-4-yl)-2-oxo-6-(trifluoromethyl)-1,2-dihydropyridine-3-carboxamide] the figure was 170 nM.
`COc1ccc2c(c1)CC(C)CC2NC(=O)c1ccc(C(F)(F)F)[nH]c1=O` (stereo not shown) [Compound 389, N-(6-methoxy-3-methyl-1,2,3,4-tetrahydronaphthalen-1-yl)-2-oxo-6-(trifluoromethyl)-1,2-dihydropyridine-3-carboxamide]: the IC50 is 580 nM.
`Cc1ccc2c(c1)CC(C)CC2NC(=O)c1ccc(C(F)(F)F)[nH]c1=O` (stereo not shown) [Compound 391, N-(3,6-dimethyl-1,2,3,4-tetrahydronaphthalen-1-yl)-2-oxo-6-(trifluoromethyl)-1,2-dihydropyridine-3-carboxamide]: the IC50 worked out at 50 nM.

The values above are taken from patent US11957687B2 (REGENERON PHARMACEUTICALS, INC., priority 2019, dated 2024).
